According to patent US20210261642A1, “SOLUBILITY OF GLP-1 PEPTIDE” (Novo Nordisk A/S, priority 2017, published 2021):

Experiment: Assay (I): Determination of Solubility (96-well plate, pH 3.0-11.0, organic solvent 0-70% w/w, UV absorption at 280 nm)
Assay type: physicochemical
Conditions: Method 1
Experimental: Assay (I): Determination of Solubility
96-Well Plate Preparation
96-well plates containing target peptide in a solid form were prepared in one of two ways:
Method 1 (evaporation): Addition of 100 μl stock solution of said peptide at a concentration of 4-6 mg/ml to each well of a 96-well half area plate (150 μl well size). Subsequently the solvent was evaporated by applying a vacuum until the solvent was completely removed.
Method 2 (precipitation): Addition of a certain volume of a stock solution of said peptide containing to each well of a 96-well half area plate followed by the addition of a certain volume of concentrated phosphoric acid to obtain a pH of 4.6 followed by addition of a certain volume of ethanol resulting in a final ethanol concentration of 20% v/v. Subsequently the plate was stored at 4° C. for 1 h and then centrifuged at 4,000 rpm for 20 min. Finally the supernatant was removed. The concentration of the stock solution was chosen in a way that the final amount of peptide after supernatant removal was >0.4 mg per well.
In both cases the stock solution was prepared by adding de-ionized water to a certain amount of powder of said peptide followed by a stepwise addition of small amounts of a concentrated sodium hydroxide solution until said peptide was completely in solution.
To determine solubility of a target peptide at different pH and organic solvent concentrations, two different buffer systems were used in independent experiments to cover the whole range from pH 3.0 to pH 11.0. Buffer system 1 covers pH 3.0-7.5 and buffer system 2 covers pH 7.5-11.0. For each buffer system 96 different solvent compositions were premixed in the following way: • 1. A low pH buffer (adjusted to either pH 3.0 or pH 7.5) and a high pH buffer (adjusted to either pH 7.5 or pH 11.0) were mixed at 8 different ratios to obtain values between pH 3.0 and pH 7.5 or pH 7.5 and pH 11.0, respectively. The total volume after mixing was 300 μl. • 2. 12 different amounts of organic solvent were then added to these buffers to obtain organic solvent (e.g. ethanol) concentrations between 0 and 70% w/w. • 3. Water was then added to obtain a total weight of 1.0 g of solvent in each well.
After preparing the 96 different solvent systems, 100 μl of each system was transferred to the 96-well plate containing the solid form of the target peptide (prepared as described in the section “96-well plate preparation”). The plate was then stored at a given temperature (between 5° C. and 70° C.) for a given time on a rotating shaker set to 400 rpm. At regular time intervals the plate was centrifuged (4,000 rpm for 10 min) and a 10 μl sample was taken from each well. The samples were then analysed by UV absorption at 280 nm for peptide quantification. Peptide concentration results are given as UV absorption at 280 nm of the sample subtracted UV absorption at 280 nm of a well comprising 10 μl water.
The buffers used were as follows: • Buffer system 1 (for the pH range from pH 3.0-7.5)
• Buffer system 2 (for the pH ranae from pH 7.5-11.0)
Solubility of liraglutide was determined using Assay (I) described herein. Liraglutide was prepared using Method 1 (evaporation) or Method 2 (precipitation) as described in subsection “96-well plate preparation”.

## CCCCCCCCCCCCCCCC(=O)N[C@@H](CCC(=O)NCCCC[C@H](NC(=O)[C@H](C)NC(=O)[C@H](C)NC(=O)[C@H](CCC(N)=O)NC(=O)CNC(=O)[C@H](CCC(=O)O)NC(=O)[C@H](CC(C)C)NC(=O)[C@H](Cc1ccc(O)cc1)NC(=O)[C@H](CO)NC(=O)[C@H](CO)NC(=O)[C@@H](NC(=O)[C@H](CC(=O)O)NC(=O)[C@H](CO)NC(=O)[C@@H](NC(=O)[C@H](Cc1ccccc1)NC(=O)[C@@H](NC(=O)CNC(=O)[C@H](CCC(=O)O)NC(=O)[C@H](C)NC(=O)[C@@H](N)Cc1cnc[nH]1)[C@@H](C)O)[C@@H](C)O)C(C)C)C(=O)N[C@@H](CCC(=O)O)C(=O)N[C@@H](Cc1ccccc1)C(=O)N[C@H](C(=O)N[C@@H](C)C(=O)N[C@@H](Cc1c[nH]c2ccccc12)C(=O)N[C@@H](CC(C)C)C(=O)N[C@H](C(=O)N[C@@H](CCCNC(=N)N)C(=O)NCC(=O)N[C@@H](CCCNC(=N)N)C(=O)NCC(=O)O)C(C)C)[C@@H](C)CC)C(=O)O [liraglutide, Arg34,Lys26-(N-epsilon-(gamma-L-glutamyl(N-alfa-hexadecanoyl)))-GLP-1(7-37)]
MeCN 31.8% w/w, pH 10.0, 5° C.
  Peptide concentration after 5 min: 1.9 mg/mL
  Peptide concentration after 180 min: >4.0 mg/mL
  Peptide concentration after 24 h: 2.8 mg/mL
MeCN 31.8% w/w, pH 10.5, 5° C.
  Peptide concentration after 5 min: 1.3 mg/mL
  Peptide concentration after 180 min: 3.9 mg/mL
  Peptide concentration after 24 h: 3.6 mg/mL
MeCN 31.8% w/w, pH 11.0, 5° C.
  Peptide concentration after 5 min: 0.8 mg/mL
  Peptide concentration after 180 min: 3.0 mg/mL
  Peptide concentration after 24 h: >4.0 mg/mL
MeCN 38.2% w/w, pH 8.0, 5° C.
  Peptide concentration after 5 min: 0.8 mg/mL
  Peptide concentration after 180 min: 3.2 mg/mL
  Peptide concentration after 24 h: >4.0 mg/mL
MeCN 38.2% w/w, pH 8.5, 5° C.
  Peptide concentration after 5 min: 0.8 mg/mL
  Peptide concentration after 180 min: 2.9 mg/mL
  Peptide concentration after 24 h: >4.0 mg/mL
MeCN 38.2% w/w, pH 9.0, 5° C.
  Peptide concentration after 5 min: 0.4 mg/mL
  Peptide concentration after 180 min: 2.0 mg/mL
  Peptide concentration after 24 h: >4.0 mg/mL
MeCN 38.2% w/w, pH 9.5, 5° C.
  Peptide concentration after 5 min: 1.1 mg/mL
  Peptide concentration after 180 min: 3.9 mg/mL
  Peptide concentration after 24 h: 4.0 mg/mL
MeCN 38.2% w/w, pH 10.0, 5° C.
  Peptide concentration after 5 min: 1.5 mg/mL
  Peptide concentration after 180 min: >4.0 mg/mL
  Peptide concentration after 24 h: >4.0 mg/mL
MeCN 38.2% w/w, pH 10.5, 5° C.
  Peptide concentration after 5 min: 1.2 mg/mL
  Peptide concentration after 180 min: 3.2 mg/mL
  Peptide concentration after 24 h: 2.1 mg/mL
MeCN 38.2% w/w, pH 11.0, 5° C.
  Peptide concentration after 5 min: 0.6 mg/mL
  Peptide concentration after 180 min: 2.7 mg/mL
  Peptide concentration after 24 h: >4.0 mg/mL
MeCN 44.5% w/w, pH 8.0, 5° C.
  Peptide concentration after 5 min: 0.7 mg/mL
  Peptide concentration after 180 min: 2.8 mg/mL
  Peptide concentration after 24 h: >4.0 mg/mL
MeCN 44.5% w/w, pH 8.5, 5° C.
  Peptide concentration after 5 min: 1.1 mg/mL
  Peptide concentration after 180 min: 3.3 mg/mL
  Peptide concentration after 24 h: >4.0 mg/mL
MeCN 44.5% w/w, pH 9.0, 5° C.
  Peptide concentration after 5 min: 1.7 mg/mL
  Peptide concentration after 180 min: 2.7 mg/mL
  Peptide concentration after 24 h: >4.0 mg/mL
MeCN 44.5% w/w, pH 9.5, 5° C.
  Peptide concentration after 5 min: 1.1 mg/mL
  Peptide concentration after 180 min: 3.7 mg/mL
  Peptide concentration after 24 h: 1.3 mg/mL
MeCN 44.5% w/w, pH 10.0, 5° C.
  Peptide concentration after 5 min: 1.3 mg/mL
  Peptide concentration after 180 min: 3.7 mg/mL
  Peptide concentration after 24 h: >4.0 mg/mL
MeCN 44.5% w/w, pH 10.5, 5° C.
  Peptide concentration after 5 min: 0.9 mg/mL
  Peptide concentration after 180 min: 2.9 mg/mL
  Peptide concentration after 24 h: >4.0 mg/mL
MeCN 44.5% w/w, pH 11.0, 5° C.
  Peptide concentration after 5 min: 0.8 mg/mL
  Peptide concentration after 180 min: 2.9 mg/mL
  Peptide concentration after 24 h: >4.0 mg/mL
MeCN 50.9% w/w, pH 8.0, 5° C.
  Peptide concentration after 5 min: 0.6 mg/mL
